Source: patent publication US10166203B2, “Pharmaceutical composition for treating cancer including 2-methoxy-4-(3-(4-methoxyphenyl)prop-1-en-1-yl)phenol as active ingredient” (CHUNGBUK NATIONAL UNIVERSITY INDUSTRY-ACADEMIC COOPERATION …, priority 2015, dated 2019)
In brackets after ≈: the same amount, converted by molar mass.

Columns and labels:
STAT3 = molecular target: T1, STAT3 (Homo sapiens, UniProt P40763); assay: DNA binding activity of STAT3 using EMSA; format: cell-based; settings: SW480 cells exposed for 1 hour
T1 construct: endogenous in cells; host or cells: SW480 cells (nuclear extract)
T1 sequence (P40763 whole entry): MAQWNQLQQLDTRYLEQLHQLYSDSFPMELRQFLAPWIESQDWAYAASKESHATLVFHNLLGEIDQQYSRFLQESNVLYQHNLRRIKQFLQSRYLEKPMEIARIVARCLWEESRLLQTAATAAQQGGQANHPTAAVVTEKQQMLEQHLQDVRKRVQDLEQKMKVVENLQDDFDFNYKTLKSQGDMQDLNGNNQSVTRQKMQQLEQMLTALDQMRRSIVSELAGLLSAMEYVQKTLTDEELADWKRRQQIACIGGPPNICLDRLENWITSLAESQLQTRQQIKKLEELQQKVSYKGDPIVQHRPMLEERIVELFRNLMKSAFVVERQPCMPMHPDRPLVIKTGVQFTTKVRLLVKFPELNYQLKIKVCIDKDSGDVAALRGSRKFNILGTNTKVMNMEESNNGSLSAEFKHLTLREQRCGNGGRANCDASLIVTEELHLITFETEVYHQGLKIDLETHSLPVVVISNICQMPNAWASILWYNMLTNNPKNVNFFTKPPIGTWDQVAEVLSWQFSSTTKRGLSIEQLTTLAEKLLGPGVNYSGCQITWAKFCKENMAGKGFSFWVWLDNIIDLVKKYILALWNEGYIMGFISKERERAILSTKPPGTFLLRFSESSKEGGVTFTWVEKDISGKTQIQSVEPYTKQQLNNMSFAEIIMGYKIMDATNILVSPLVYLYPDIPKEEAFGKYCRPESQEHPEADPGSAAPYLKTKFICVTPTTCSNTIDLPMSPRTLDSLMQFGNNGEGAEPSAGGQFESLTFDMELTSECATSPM
Protocol: The DNA binding activity of STAT3 was measured using an electrophoretic mobility shift assay (EMSA) as described in document 1. Put briefly, cells were cultured in a 100 mm culture dish at 37° C. for 24 hours and then treated with MMPP or DMSO. After incubation for 24 hours, the cells were washed three times with cold PBS and nuclear extracts for EMSA experiments were prepared. Relative thickness of the DNA-protein binding band was quantified using Lab Works 4.0 software (UVP Inc., Upland, Calif., USA) after scanning with densitometry.
In order to determine whether MMPP reacted with STAT3 to inhibit DNA binding activity of STAT3, MMPP was exposed to SW480 cells for 1 hour and the DNA binding activity of STAT3 was measured.

SW480 cells [1] = assay: Western blot analysis of cell cycle regulatory and apoptosis signal proteins; format: cell-based, human
Protocol: Lysates, cytosolic and nuclear extracts of whole cells were obtained. SDS-PAGE and western blot analysis were performed as described in published documents 1 and 2 [1, 2]. Put briefly, the cells of 5×10^5 cells/well were inoculated in 6-well plates and cultured for 24 hours. Cells were then treated with MMPP or DMSO for 24 hours. The treated cells were washed twice with PBS and lysed. Proteins from the lysed cells were separated on 10 to 15% SDS-PAGE. Proteins were transferred to a PVDF membrane and the PVDF membrane was blocked with TBS/T-buffer including 5% defatted milk for 2.5 hours at room temperature. The membrane to which the proteins are transferred was analyzed by using a mouse monoclonal antibody for as a primary antibody. Protein expression was visualized using a chemiluminescence reagent (Amersham Pharmacia Biotech, Inc., Buckinghamshire, UK) and measured using a in which a CCD camera (Fusion-FX, Fisher BioTech, Ltd., Wembley, Australia) is installed.
2. Effect of MMPP on Cell Cycle Regulatory Signal and Apoptosis Signal In order to investigate the basic mechanism of the growth inhibitory effect of colon cancer cells of MMPP, it was examined whether MMPP treatment affects cell cycle regulation and apoptosis signals in SW480 cells.

SW480 xenografted mouse = assay: Anticancer activity in a colon cancer xenograft animal model; format: in vivo; settings: twice a week for 3 weeks, nude mice
SW480 cells [2] = assay: Cell viability analysis using MTT assay; format: cell-based, human
Protocol: The human colon cancer cell line, SW480, was purchased from the American Type Culture Collection (Manassas, Va., USA) and cultured in an RPMI (Roswell Park Memorial Institute)-1640 medium (Gibco-BRL) to which 10% heat-inactivated fetal bovine serum (FBS) and penicillin/streptomycin at 37° C. humidified atmosphere of 5% CO2. The cells were cultured in a 100 mm culture dish at a concentration of 4×10^5 cells for experiments.
The influence of 2-methoxy-4-(3-(4-methoxyphenyl)prop-1-en-1-yl)phenol (MMPP) on the viability of cells was confirmed by colorimetric and metabolic activity assay using MTT [3-(4,5-dimethylthiazol-2-yl)-2,5-diphenyltetrazolium bromide]. Put briefly, cells were inoculated on 96-well plates at 1×10^4 cells/well and cultured for 24 hours. Cells were treated with 2.5 to 10 μg/ml MMPP or DMSO (dimethyl sulfoxide), a solvent for MMPP. After culturing for 24 hours, the medium including MMPP was removed and replaced with 100 μl of fresh medium. After culturing for 1.5 hours, medium including MTT was removed and 200 μl DMSO was added to each well. The plate was then agitated at a weak intensity until the color reaction of the plate became uniform. Colorimetric evaluation was performed using a microplate reader at 540 nm.
The inhibitory effect of MMPP on the growth of human colon cancer cells was examined using SW480 cells.

With `COc1ccc(C/C=C/c2ccc(O)c(OC)c2)cc1` [MMPP, 2-methoxy-4-(3-(4-methoxyphenyl)propyl-1-en-1-yl)phenol] the “DNA binding activity of STAT3” value (STAT3) was “effectively inhibited DNA binding activity of STAT3”, the “expression of cell cycle regulatory signal proteins” value (SW480 cells [1]) was “effectively reduced the expression” and the “expression of pro-apoptotic proteins cleaved caspase-3, cleaved caspase-8 and Bax” value (SW480 cells [1]) was “increased the expression”. The “expression of the anti-apoptotic protein Bcl-2” value (SW480 cells [1]) was “reduced the expression”, the “Tumor volume compared to the control group” value (SW480 xenografted mouse; 2.5 mg/kg intraperitoneal) was 65% and the “Tumor volume compared to the control group” value (SW480 xenografted mouse; 5 mg/kg intraperitoneal) was 35%. For the same compound, the “cell density compared to the control group” value (SW480 cells [2]) was “significantly reduced cell density” and the IC50 (SW480 cells [2]; Homo sapiens, MMPP 2.5 to 10 μg/ml, treated for 24 hours, MTT, read-out: IC50 value, inhibition of the growth of SW480 cells) was 5.9 µg/mL (≈ 21.8 µM).
